{"source": "PubChem BioAssay AID1259407", "about": "(Chemical Carcinogenesis Research Information System (CCRIS), 2018)", "test_system": "CCRIS mutagenicity, Ames/micronucleus/aberration tests", "assay": "CCRIS mutagenicity studies", "key": {"[1]": {"conditions": "Test System: AMES SALMONELLA TYPHIMURIUM, Strain/Indicator: TA100, Metabolic Activation: NONE, Method: PREINCUBATION"}, "[2]": {"conditions": "Test System: AMES SALMONELLA TYPHIMURIUM, Strain/Indicator: TA100, Metabolic Activation: RAT, LIVER, S-9, PCB, Method: PREINCUBATION"}}, "note": "The source made the active and inactive calls. How the calls were made is not given here."}
{"smiles": "CC(O)CN(C)N=O", "note": "(stereo not given)", "values": [{"measurement": "mutagenic call", "setting": "Test System: AMES SALMONELLA TYPHIMURIUM, Strain/Indicator: TA100, Metabolic Activation: HAMSTER, LIVER, S-9, 3-METHYLCHOLANTHRENE, Method: PREINCUBATION", "result": "active; positive"}, {"measurement": "mutagenic call", "setting": "Test System: AMES SALMONELLA TYPHIMURIUM, Strain/Indicator: TA100, Metabolic Activation: HAMSTER, LIVER, S-9, PHENOBARBITAL, Method: PREINCUBATION", "result": "active; positive"}, {"measurement": "mutagenic call", "setting": "Test System: AMES SALMONELLA TYPHIMURIUM, Strain/Indicator: TA100, Metabolic Activation: HAMSTER, LIVER, S-9, Method: PREINCUBATION", "result": "active; positive"}, {"measurement": "mutagenic call", "setting": "Test System: AMES SALMONELLA TYPHIMURIUM, Strain/Indicator: TA100, Metabolic Activation: HUMAN, LIVER, S-9, Method: PREINCUBATION", "result": "active; positive"}, {"measurement": "mutagenic call", "setting": "Test System: AMES SALMONELLA TYPHIMURIUM, Strain/Indicator: TA100, Metabolic Activation: MONKEY, LIVER, S-9, Method: PREINCUBATION", "result": "active; positive"}, {"measurement": "mutagenic call", "setting": "Test System: AMES SALMONELLA TYPHIMURIUM, Strain/Indicator: TA100, Metabolic Activation: MOUSE, LIVER, S-9, 3-METHYLCHOLANTHRENE, Method: PREINCUBATION", "result": "active; positive"}, {"measurement": "mutagenic call", "setting": "Test System: AMES SALMONELLA TYPHIMURIUM, Strain/Indicator: TA100, Metabolic Activation: MOUSE, LIVER, S-9, PHENOBARBITAL, Method: PREINCUBATION", "result": "active; positive"}, {"measurement": "mutagenic call", "setting": "Test System: AMES SALMONELLA TYPHIMURIUM, Strain/Indicator: TA100, Metabolic Activation: MOUSE, LIVER, S-9, Method: PREINCUBATION", "result": "active; positive"}, {"measurement": "mutagenic call", "setting": "[1]", "result": "inactive; negative"}, {"measurement": "mutagenic call", "setting": "Test System: AMES SALMONELLA TYPHIMURIUM, Strain/Indicator: TA100, Metabolic Activation: RABBIT, LIVER, S-9, Method: PREINCUBATION", "result": "active; positive"}, {"measurement": "mutagenic call", "setting": "Test System: AMES SALMONELLA TYPHIMURIUM, Strain/Indicator: TA100, Metabolic Activation: RAT, LIVER, CYTOSOL, PCB, Method: PREINCUBATION", "result": "inactive; negative"}, {"measurement": "mutagenic call", "setting": "Test System: AMES SALMONELLA TYPHIMURIUM, Strain/Indicator: TA100, Metabolic Activation: RAT, LIVER, MICROSOMES AND CYTOSOL, PCB, Method: PREINCUBATION", "result": "active; positive"}, {"measurement": "mutagenic call", "setting": "Test System: AMES SALMONELLA TYPHIMURIUM, Strain/Indicator: TA100, Metabolic Activation: RAT, LIVER, MICROSOMES AND G6PDH, PCB, Method: PREINCUBATION", "result": "active; positive"}, {"measurement": "mutagenic call", "setting": "Test System: AMES SALMONELLA TYPHIMURIUM, Strain/Indicator: TA100, Metabolic Activation: RAT, LIVER, MICROSOMES, PCB, Method: PREINCUBATION", "result": "active; positive"}, {"measurement": "mutagenic call", "setting": "Test System: AMES SALMONELLA TYPHIMURIUM, Strain/Indicator: TA100, Metabolic Activation: RAT, LIVER, S-9 (HEATED), PCB, Method: PREINCUBATION", "result": "inactive; negative"}, {"measurement": "mutagenic call", "setting": "Test System: AMES SALMONELLA TYPHIMURIUM, Strain/Indicator: TA100, Metabolic Activation: RAT, LIVER, S-9, 3-METHYLCHOLANTHRENE, Method: PREINCUBATION", "result": "active; positive"}, {"measurement": "mutagenic call", "setting": "[2]", "result": "active; positive"}, {"measurement": "mutagenic call", "setting": "Test System: AMES SALMONELLA TYPHIMURIUM, Strain/Indicator: TA100, Metabolic Activation: RAT, LIVER, S-9, PHENOBARBITAL, Method: PREINCUBATION", "result": "active; positive"}, {"measurement": "mutagenic call", "setting": "Test System: AMES SALMONELLA TYPHIMURIUM, Strain/Indicator: TA100, Metabolic Activation: RAT, LIVER, S-9, Method: PREINCUBATION", "result": "active; positive"}, {"measurement": "mutagenic call", "setting": "Test System: AMES SALMONELLA TYPHIMURIUM, Strain/Indicator: TA100, Metabolic Activation: RAT, LIVER, S-9 WITHOUT NADP+, PCB, Method: PREINCUBATION", "result": "inactive; negative"}, {"measurement": "mutagenic call", "setting": "Test System: AMES SALMONELLA TYPHIMURIUM, Strain/Indicator: TA100, Metabolic Activation: TOBACCO CELLS, Method: PREINCUBATION", "result": "inactive; negative"}, {"measurement": "mutagenic call", "setting": "Test System: AMES SALMONELLA TYPHIMURIUM, Strain/Indicator: TA100, Method: PREINCUBATION", "result": "active; positive"}, {"measurement": "mutagenic call", "setting": "Test System: CHINESE HAMSTER V-79, Strain/Indicator: V-79/OUABAIN, Metabolic Activation: HAMSTER, HEPATOCYTES, Method: CELL-MEDIATED", "result": "active; positive"}]}
{"smiles": "CCC(C)C(C)CO", "note": "(stereo not given)", "values": [{"measurement": "mutagenic call", "setting": "Test System: AMES SALMONELLA TYPHIMURIUM, Strain/Indicator: TA97, Metabolic Activation: HAMSTER, LIVER, S-9, AROCLOR 1254 (10 OR 30%), Method: PREINCUBATION", "result": "inactive; negative"}, {"measurement": "mutagenic call", "setting": "Test System: AMES SALMONELLA TYPHIMURIUM, Strain/Indicator: TA97, Metabolic Activation: NONE, Method: PREINCUBATION", "result": "inactive; negative"}, {"measurement": "mutagenic call", "setting": "Test System: AMES SALMONELLA TYPHIMURIUM, Strain/Indicator: TA97, Metabolic Activation: RAT, LIVER, S-9, AROCLOR 1254 (10%), Method: PREINCUBATION", "result": "inactive; negative"}, {"measurement": "mutagenic call", "setting": "Test System: AMES SALMONELLA TYPHIMURIUM, Strain/Indicator: TA97, Metabolic Activation: RAT, LIVER, S-9, AROCLOR 1254 (30%), Method: PREINCUBATION", "result": "inactive; negative"}, {"measurement": "mutagenic call", "setting": "Test System: AMES SALMONELLA TYPHIMURIUM, Strain/Indicator: TA98, Metabolic Activation: HAMSTER, LIVER, S-9, AROCLOR 1254 (10 OR 30%), Method: PREINCUBATION", "result": "inactive; negative"}, {"measurement": "mutagenic call", "setting": "Test System: AMES SALMONELLA TYPHIMURIUM, Strain/Indicator: TA98, Metabolic Activation: NONE, Method: PREINCUBATION", "result": "inactive; negative"}, {"measurement": "mutagenic call", "setting": "Test System: AMES SALMONELLA TYPHIMURIUM, Strain/Indicator: TA98, Metabolic Activation: RAT, LIVER, S-9, AROCLOR 1254 (10%), Method: PREINCUBATION", "result": "inactive; negative"}, {"measurement": "mutagenic call", "setting": "Test System: AMES SALMONELLA TYPHIMURIUM, Strain/Indicator: TA98, Metabolic Activation: RAT, LIVER, S-9, AROCLOR 1254 (30%), Method: PREINCUBATION", "result": "inactive; negative"}, {"measurement": "mutagenic call", "setting": "Test System: AMES SALMONELLA TYPHIMURIUM, Strain/Indicator: TA100, Metabolic Activation: HAMSTER, LIVER, S-9, AROCLOR 1254 (10 OR 30%), Method: PREINCUBATION", "result": "inactive; negative"}, {"measurement": "mutagenic call", "setting": "[1]", "result": "inactive; negative"}, {"measurement": "mutagenic call", "setting": "Test System: AMES SALMONELLA TYPHIMURIUM, Strain/Indicator: TA100, Metabolic Activation: RAT, LIVER, S-9, AROCLOR 1254 (10%), Method: PREINCUBATION", "result": "inactive; negative"}, {"measurement": "mutagenic call", "setting": "Test System: AMES SALMONELLA TYPHIMURIUM, Strain/Indicator: TA100, Metabolic Activation: RAT, LIVER, S-9, AROCLOR 1254 (30%), Method: PREINCUBATION", "result": "inactive; negative"}, {"measurement": "mutagenic call", "setting": "Test System: AMES SALMONELLA TYPHIMURIUM, Strain/Indicator: TA1535, Metabolic Activation: HAMSTER, LIVER, S-9, AROCLOR 1254 (10 OR 30%), Method: PREINCUBATION", "result": "inactive; negative"}, {"measurement": "mutagenic call", "setting": "Test System: AMES SALMONELLA TYPHIMURIUM, Strain/Indicator: TA1535, Metabolic Activation: NONE, Method: PREINCUBATION", "result": "inactive; negative"}, {"measurement": "mutagenic call", "setting": "Test System: AMES SALMONELLA TYPHIMURIUM, Strain/Indicator: TA1535, Metabolic Activation: RAT, LIVER, S-9, AROCLOR 1254 (10%), Method: PREINCUBATION", "result": "inactive; negative"}, {"measurement": "mutagenic call", "setting": "Test System: AMES SALMONELLA TYPHIMURIUM, Strain/Indicator: TA1535, Metabolic Activation: RAT, LIVER, S-9, AROCLOR 1254 (30%), Method: PREINCUBATION", "result": "inactive; negative"}]}
{"smiles": "c1ccc2c(c1)ccc1nc3c(ccc4ccccc43)cc12", "values": [{"measurement": "mutagenic call", "setting": "Test System: AMES SALMONELLA TYPHIMURIUM, Strain/Indicator: TA100, Metabolic Activation: RAT, LIVER, S-9, PHENOBARBITAL AND 5,6-BENZOFLAVONE, Method: STANDARD PLATE", "result": "active; positive"}]}
{"smiles": "[N-]=[N+]=NC[C@@H](O)c1ccccc1", "values": [{"measurement": "mutagenic call", "setting": "[2]", "result": "active; positive"}]}
{"smiles": "CCOC(=O)C1=C(C)NC(C)=C(C(=O)OCC2COC3(CCCC3)O2)C1c1cccc(Cl)c1", "note": "(stereo not given)", "values": [{"measurement": "mutagenic call", "setting": "Test System: AMES SALMONELLA TYPHIMURIUM, Strain/Indicator: TA97, Metabolic Activation: NONE, Method: STANDARD PLATE", "result": "inactive; negative"}, {"measurement": "mutagenic call", "setting": "Test System: AMES SALMONELLA TYPHIMURIUM, Strain/Indicator: TA97, Metabolic Activation: RAT, LIVER, S-9, Method: STANDARD PLATE", "result": "inactive; negative"}, {"measurement": "mutagenic call", "setting": "Test System: AMES SALMONELLA TYPHIMURIUM, Strain/Indicator: TA98, Metabolic Activation: NONE, Method: STANDARD PLATE", "result": "inactive; negative"}, {"measurement": "mutagenic call", "setting": "Test System: AMES SALMONELLA TYPHIMURIUM, Strain/Indicator: TA98, Metabolic Activation: RAT, LIVER, S-9, Method: STANDARD PLATE", "result": "inactive; negative"}, {"measurement": "mutagenic call", "setting": "Test System: AMES SALMONELLA TYPHIMURIUM, Strain/Indicator: TA100, Metabolic Activation: NONE, Method: STANDARD PLATE", "result": "inactive; negative"}, {"measurement": "mutagenic call", "setting": "Test System: AMES SALMONELLA TYPHIMURIUM, Strain/Indicator: TA100, Metabolic Activation: RAT, LIVER, S-9, Method: STANDARD PLATE", "result": "inactive; negative"}, {"measurement": "mutagenic call", "setting": "Test System: AMES SALMONELLA TYPHIMURIUM, Strain/Indicator: TA102, Metabolic Activation: NONE, Method: STANDARD PLATE", "result": "inactive; negative"}, {"measurement": "mutagenic call", "setting": "Test System: AMES SALMONELLA TYPHIMURIUM, Strain/Indicator: TA102, Metabolic Activation: RAT, LIVER, S-9, Method: STANDARD PLATE", "result": "inactive; negative"}, {"measurement": "mutagenic call", "setting": "Test System: CHINESE HAMSTER V-79, Strain/Indicator: V-79 (HPRT)/6-THIOGUANINE, Metabolic Activation: NONE", "result": "inactive; negative"}]}
